According to patent US11131677B2 (University of Washington, priority 2018, dated 2021):

Experiments:
[1] = Oral testosterone pharmacokinetics and serum metabolite profile (LC-MS/MS) in men with acyline-induced experimental hypogonadism, with and without dutasteride; format: in vivo, human; conditions: for Average AUC0-24 h with dutasteride, % with respect to T alone: T200+D vs T200; for Average AUC0-24 h with dutasteride, % as compared to T alone: T800+D vs T800; for AUC0-24 h, fold higher as compared to T AUC0-24 h: human serum, 800 mg dose; for AUC 0-24 h / t½ / Cmax / Tmax: serum; for AUC0-24 h at T800, fold higher than with T200: T800 vs T200
Procedure: T emulsion in sesame oil, mixed with milk, was administered orally to human subjects with acyline-induced experimental hypogonadism. The blood samples were collected and the serum was isolated and stored in −80° C. Steroids and their metabolites were extracted from serum using protein precipitation followed by solid-phase extraction and analyzed by UPLC coupled with SCIEX 6500 MS/MS.
Clinical study design is discussed below. All subjects provided written, informed consent prior to any study procedures. The study was approved by the University of Washington (UW) Investigational Review Board Committee.
While study was conducted with 200, 400 and 800 mg T dose, only T200 and T800 were quantified. […] Samples were mixed for 1 min by vortex mixing, and then centrifuged for 10 min at 3500×g at 4° C. […] Samples (2 mL) were loaded onto the cartridges and flow through was discarded.
Data were acquired by Analyst 1.6 software.

[2] = system: 5-AR type 1 and 2; test: Dutasteride co-treatment with T in human hepatocyte culture; conditions: for Effect of dutasteride co-treatment on metabolite formation from T: p<0.01 for decreases
Procedure: (§1) A targeted metabolomics study was performed on previously collected samples from an oral T pharmacokinetics (PK) study (800 mg). T and its primary and secondary metabolites in serum were quantified, and PK data of these steroids were analyzed using the non-compartmental method. […] Additionally, T-metabolism study was also performed in human hepatocytes for 1 h. The media and cell pellets were collected for subsequent metabolomics and proteomics analyses, respectively. Effect of dutasteride treatment on androgen metabolome was also investigated, both in vivo and in vitro.

[3] = molecular target: UGT2B15 (Homo sapiens, UniProt P54855)
Procedure: Oxazepam was used as a probe substrate for UGT2B15 activity by measuring oxazepam glucuronide formation (m/z 463.3→287.1, 269.1; DP 70; CE 20) with 10 μM oxazepam.

[4] = molecular target: UGT2B7 (Homo sapiens, UniProt P16662)
[5] = system: human hepatocytes; test: T metabolism in primary human hepatocytes (metabolite formation); conditions: for In vitro formation from T: primary human hepatocyte
Procedure: as §1

[6] = T200 + D (200 mg oral T with dutasteride)
[7] = T800 + D (800 mg oral T with dutasteride)

UGT2B15, sequence (P54855 24-530): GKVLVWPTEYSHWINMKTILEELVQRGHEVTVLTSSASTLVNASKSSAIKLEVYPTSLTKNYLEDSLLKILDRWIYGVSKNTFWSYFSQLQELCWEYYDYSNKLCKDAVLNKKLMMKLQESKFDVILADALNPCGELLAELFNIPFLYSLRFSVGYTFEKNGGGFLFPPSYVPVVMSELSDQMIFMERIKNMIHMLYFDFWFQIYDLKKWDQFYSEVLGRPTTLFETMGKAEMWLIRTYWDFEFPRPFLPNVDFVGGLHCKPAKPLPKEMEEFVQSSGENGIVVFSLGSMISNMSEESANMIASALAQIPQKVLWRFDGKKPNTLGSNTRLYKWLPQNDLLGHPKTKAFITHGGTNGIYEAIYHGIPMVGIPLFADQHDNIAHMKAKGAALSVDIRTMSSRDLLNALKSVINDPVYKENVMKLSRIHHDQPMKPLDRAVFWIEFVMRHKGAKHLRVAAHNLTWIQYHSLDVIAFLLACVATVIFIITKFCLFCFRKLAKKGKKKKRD
UGT2B7, sequence (P16662 24-529): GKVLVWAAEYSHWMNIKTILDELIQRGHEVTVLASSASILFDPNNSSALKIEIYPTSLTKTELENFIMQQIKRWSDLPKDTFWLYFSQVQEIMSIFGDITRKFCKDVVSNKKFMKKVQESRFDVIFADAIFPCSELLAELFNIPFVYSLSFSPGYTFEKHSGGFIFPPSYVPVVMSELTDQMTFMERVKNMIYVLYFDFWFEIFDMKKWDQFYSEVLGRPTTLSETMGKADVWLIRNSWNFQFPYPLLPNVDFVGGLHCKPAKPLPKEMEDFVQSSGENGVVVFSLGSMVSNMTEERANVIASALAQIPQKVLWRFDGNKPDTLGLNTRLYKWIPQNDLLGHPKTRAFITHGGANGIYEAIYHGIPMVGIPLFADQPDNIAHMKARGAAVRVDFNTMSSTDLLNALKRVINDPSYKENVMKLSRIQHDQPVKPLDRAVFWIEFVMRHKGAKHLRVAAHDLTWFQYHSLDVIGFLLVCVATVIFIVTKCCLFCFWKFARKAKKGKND

| Compound | Absolute level in pooled serum, fold of baseline eugonadal state ([1]; T200) | Average serum AUC0-24 h ([1]; T200) | Average AUC0-24 h with dutasteride, % with respect to T alone [1] | Absolute level in pooled serum, fold of baseline eugonadal state ([1]; T800) | Average AUC0-24 h with dutasteride, % as compared to T alone [1] | AUC0-24 h, fold higher as compared to T AUC0-24 h [1] | AUC 0-24 h ([1]; T200) | t½ ([1]; T200 (200 mg oral T)) | t½ [1, 6] | AUC 0-24 h ([1]; T800) | t½ ([1]; T800 (800 mg oral T)) | AUC 0-24 h ([1]; T800 + D) | t½ [1, 7] | Effect of dutasteride co-treatment on metabolite formation from T [2] | AUC 0-24 h ([1]; T200 + D) | also measured |
| --- | --- | --- | --- | --- | --- | --- | --- | --- | --- | --- | --- | --- | --- | --- | --- | --- |
| C[C@]12CC[C@@H](O[C@@H]3O[C@H](C(=O)O)[C@@H](O)[C@H](O)[C@H]3O)C[C@@H]1CC[C@@H]1[C@@H]2CC[C@]2(C)C(=O)CC[C@@H]12 [AG, Androsterone glucuronide] | 9.5 fold | 12,111 nmol/L-h | 21% | 29.7 fold | 22% | 389 fold | 12.1108 µM·h | 4.9 h | 4.5 h | 65.4278 µM·h | 4.5 h | 14.8677 µM·h | 6.3 h | significant decreases |  |  |
| C[C@]12CC[C@@H](O)C[C@@H]1CC[C@@H]1[C@@H]2CC[C@]2(C)C(=O)CC[C@@H]12 [A, Androsterone] |  |  |  |  |  |  |  |  |  |  |  |  |  |  |  | Circulating level, % lower in dutasteride treated samples vs T alone ([1]; T200+D): 30%; Circulating level, % lower in dutasteride treated samples vs T alone ([1]; T800+D): 87% |
| Cc1ccc(NC(=O)c2ccc(CN3CCN(C)CC3)cc2)cc1Nc1nccc(-c2cccnc2)n1 [imatinib] |  |  |  |  |  |  |  |  |  |  |  |  |  |  |  | Inhibition of oxazepam (UGT2B15) glucuronidation [3]: No significant inhibition; Inhibition of naloxone (UGT2B7) glucuronidation [4]: No significant inhibition |
| C[C@]12CC[C@H]3[C@@H](CCC4=CC(=O)CC[C@@]43C)[C@@H]1CC[C@@H]2O[C@@H]1O[C@H](C(=O)O)[C@@H](O)[C@H](O)[C@H]1O [TG, Testosterone glucuronide] | 78 fold | 857.2 nmol/L-h | 43% | 277 fold | 60% | 85 fold | 0.8572 µM·h | 4.4 h | 4.3 h | 14.163 µM·h | 3.6 h | 8.5897 µM·h | 2.7 h | No significant changes | 0.3734 µM·h | Proportion of total T-related species in circulation ([1]; T dosed orally to men with experimental hypogonadism): 13%; Increase in TG/T ratio of dose-normalized AUC0-24 h ([1]; changing dose from 200 to 800 mg): 9.3 fold; Level in hepatocyte media, fold lower than AG ([5]; human hepatocytes, T-treated): 3.7 fold; In vitro formation from T [5]: 42% |
| C[C@]12C=CC(=O)N[C@@H]1CC[C@@H]1[C@@H]2CC[C@]2(C)[C@@H](C(=O)Nc3cc(C(F)(F)F)ccc3C(F)(F)F)CC[C@@H]12 [dutasteride, reference compound] |  |  |  |  |  |  |  |  |  |  |  |  |  |  |  | Inhibition of 5-AR type 1 and 2 mediated metabolism of T ([2]; co-treatment with T): complete inhibition |
| C[C@]12CCC(=O)C[C@@H]1CC[C@@H]1[C@@H]2CC[C@]2(C)[C@@H](O)CC[C@@H]12 [DHT, 5α-Dihydrotestosterone] | 0.6 fold | 26.5 nmol/L-h |  | 2.2 fold |  |  | 0.0265 µM·h | 17.6 h | 24.0 h | 0.0874 µM·h | 6.9 h | 0.0266 µM·h | 17.9 h | significant decreases | 0.0096 µM·h | Average AUC0-24 h with dutasteride, % lower than T alone ([1]; T200): 64%; Average AUC0-24 h with dutasteride, % lower than T alone ([1]; T800): 70%; AUC0-24 h at T800, fold higher than with T200 [1]: 3.3 fold; Cmax ([1]; T200): 2 nM; Tmax ([1]; T200): 2 h; Cmax ([1]; T200 + D): 0.8 nM; Tmax ([1]; T200 + D): 4 h; Cmax ([1]; T800): 8.4 nM; Tmax ([1]; T800): 2 h; Cmax ([1]; T800 + D): 1.8 nM; Tmax ([1]; T800 + D): 4 h |
| C[C@]12CC[C@@H](O[C@@H]3O[C@H](C(=O)O)[C@@H](O)[C@H](O)[C@H]3O)C[C@H]1CC[C@@H]1[C@@H]2CC[C@]2(C)C(=O)CC[C@@H]12 [EtioG, Etiocholanolone glucuronide] | 13 fold | 2160 nmol/L-h | 151% | 39.5 fold | 180% | 87 fold | 2.1604 µM·h | 5.2 h | 10.5 h | 14.9815 µM·h | 7.8 h | 27.0917 µM·h | 9.9 h |  |  |  |
| C[C@]12CCC(=O)C[C@@H]1CC[C@@H]1[C@@H]2CC[C@]2(C)[C@@H](O[C@@H]3O[C@H](C(=O)O)[C@@H](O)[C@H](O)[C@H]3O)CC[C@@H]12 [DHTG, DHT-glucuronide] | 7.5 fold |  |  | 40.6 fold |  |  |  |  |  |  |  |  |  |  |  |  |
| C[C@]12CCC(=O)C=C1CC[C@@H]1[C@@H]2CC[C@]2(C)C(=O)CC[C@@H]12 [AED, Androstenedione] | 2.3 fold | 373.7 nmol/L-h |  | 14.9 fold |  |  | 0.3737 µM·h | 12.7 h | 8.3 h | 1.5518 µM·h | 6.8 h | 10.8444 µM·h | 5.2 h | No significant changes | 1.6349 µM·h | Circulating level, fold higher with dutasteride vs T alone ([1]; T200+D and T800+D): 5.7 fold; AUC0-24 h at T800, fold higher than with T200 [1]: 4.2 fold; Cmax ([1]; T200): 66.3 nM; Tmax ([1]; T200): 2 h; Cmax ([1]; T200 + D): 200 nM; Tmax ([1]; T200 + D): 2 h; Cmax ([1]; T800): 280 nM; Tmax ([1]; T800): 1 h; Cmax ([1]; T800 + D): 2300 nM; Tmax ([1]; T800 + D): 2 h; In vitro formation from T [5]: 46% |
| C[C@]12CC[C@H]3[C@@H](C[C@@H](O)C4=CC(=O)CC[C@@]43C)[C@@H]1CC[C@@H]2O [6β-OH-T, 6β-hydroxytestosterone] |  |  |  |  |  |  |  |  |  |  |  |  |  | significant decreases |  |  |
